The text below walks through data of PubChem BioAssay AID792 (PCMD, 2007).

The target of the test is S. cerevisiae eIF2B mutant, luciferase reporter luminescence. The experiment in a line: potency on yeast eIF2B luminescence signal – S. cerevisiae, mutant, wild-type, growth, dose response (AID 792).
Setting [1] is: measured here: mutant yeast growth.
[2] abbreviates: S. cerevisiae wild-type, luminescence.

Records with an inconclusive call do not appear. Calls of active or inactive are those of the source. How the calls were made is not given here.

By IC50 is commonly meant the point on the concentration scale where inhibition reaches its midpoint. With `Cc1nc(-c2cccc(S(=O)(=O)N3CC(C)CC(C)C3)c2)cs1` (configuration not stated), the IC50 is > 100 µM (inactive). In addition, the IC50 under setting [1] is > 100 µM.

With `O=C(O)c1cc2c(ccc3ccccc32)[nH]1`, the IC50 was > 100 µM (inactive). Also, the IC50 under setting [1] was > 100 µM.

On to `Cc1c(C(=O)N2CCCC2)sc(NC(=O)c2ccc(Cl)cc2)c1C#N`, for which the IC50 was > 100 µM (inactive). Besides, the concentration for half-maximal inhibition (IC50) under setting [1] was > 100 µM.

Turning to `Cn1c(CNc2ccccc2)cc(=O)n(C)c1=O`, the IC50 is > 100 µM (inactive). For the same compound, the IC50 under setting [1] was > 100 µM.

`CN1C(=O)N(C)C(=O)C2(Cc3c(nc4ccccn4c3=O)N3CCc4ccccc4C32)C1=O` (configuration not stated): the IC50 is > 100 µM (inactive). Under setting [1], the IC50 is > 100 µM.

With `COc1ccc(C2C=C(c3ccccc3)Nc3nnnn32)cc1` (configuration not stated), the IC50 was > 100 µM (inactive). Besides, under setting [1], the IC50 is > 100 µM.

`NC(=O)Cn1c(=O)n(Cc2ccco2)c(=O)c2c3c(sc21)CCCCC3`: the IC50 was > 100 µM (inactive). Moreover, under setting [1], the half-inhibitory concentration (IC50) is > 100 µM.

For `O=C(N1CCOCC1)N1c2ccccc2CC(N2CCOCC2)c2ccccc21` (configuration not stated), the IC50 was > 100 µM (inactive). Moreover, the IC50 under setting [1] is > 100 µM.

For `O=C(CCS(=O)CCC(=O)NCc1ccccc1)NCc1ccccc1`, the IC50 was > 100 µM (inactive). Under setting [1], the IC50 is > 100 µM.

On to `CCCCN(C(=O)Cn1nnc2ccccc21)C(C(=O)NCCOC)c1ccccc1` (configuration not stated), for which the IC50 was > 100 µM (inactive). Besides, under setting [1], the IC50 was > 100 µM.

`CN(C)CCN1C(=O)C(O)=C(C(=O)c2ccco2)C1c1ccccc1F` (configuration not stated): the IC50 was > 100 µM (inactive). Also, under setting [1], the half-inhibitory concentration (IC50) was > 100 µM.

On to `COc1ccc(-c2nnn(CC(=O)N(Cc3ccc(F)cc3)C(C(=O)NC3CCCC3)c3ccc(F)cc3)n2)cc1` (configuration not stated), for which the IC50 is > 100 µM (inactive). For the same compound, under setting [1], the half-maximal inhibitory concentration (IC50) is > 100 µM.

Turning to `CN1CCN(C(=O)CSc2nc(-c3ccncc3)ccc2C#N)CC1`, the IC50 is > 100 µM (inactive). Further, under setting [1], the IC50 is > 100 µM.

In the case of `Nn1c(COc2cccc(Br)c2)nnc1SCC(=O)N1CCc2ccccc2C1`, the IC50 was > 100 µM (inactive). Under setting [1], the IC50 was > 100 µM.

Turning to `Cc1cc(=O)[nH]c(N=N/C(=N/Nc2ccc(O)cc2)c2ccccc2)n1`, the IC50 entry was “inactive”. In addition, under setting [2], the IC50 was 45.2 µM. In addition, under setting [1], the IC50 is > 100 µM.

On to `O=C(O)c1ccc(CSc2n[nH]c(-c3ccco3)n2)cc1`, for which the IC50 is > 100 µM (inactive). For the same compound, the IC50 under setting [1] is > 100 µM.

For `Cc1cccc(Cn2cnc3c(nnn3Cc3ccc(Cl)cc3)c2=O)c1`, the IC50 was > 100 µM (inactive). The 50% inhibitory concentration (IC50) under setting [1] was > 100 µM.

Take `CC(=O)c1cnc2c(-c3ccc(Cl)cc3)c(C)nn2c1C`: the IC50 was > 100 µM (inactive). Moreover, the IC50 under setting [1] was > 100 µM.

Turning to `C=CCNc1nc(-c2cccc(OC)c2O)nc2ccccc12`, the IC50 is > 100 µM (inactive). The IC50 under setting [1] is > 100 µM.

`O=C(c1ccco1)N1CCN(C(=O)c2ccccc2Oc2ccccc2)CC1`: the IC50 was > 100 µM (inactive). Further, under setting [1], the IC50 is > 100 µM.

With `O=C(CCN1CCN(Cc2ccccc2)CC1)Nc1cccc(Cl)c1`, the IC50 was > 100 µM (inactive). Moreover, under setting [1], the IC50 is > 100 µM.

`CC(N=c1ccccn1C(=O)Nc1cccc(C(F)(F)F)c1)c1ccco1` (configuration not stated): the IC50 was > 100 µM (inactive). Besides, the 50% inhibitory concentration (IC50) under setting [1] is > 100 µM.

For the compound `CCC(=O)NCCSc1c[nH]c2ccccc12`, the IC50 is > 100 µM (inactive). The IC50 under setting [1] was > 100 µM.

On to `CCN(CC(N)=O)S(=O)(=O)c1ccc(Br)cc1`, for which the IC50 was > 100 µM (inactive). Under setting [1], the IC50 is > 100 µM.

Turning to `Cc1cc(C(=O)Nc2sc3c(c2C#N)CCC(C)C3)no1` (configuration not stated), the IC50 is > 100 µM (inactive). Under setting [1], the IC50 is > 100 µM.

Consider `Cc1cccc2cc3c(NC(=O)c4ccccn4)nn(C)c3nc12`, for which the IC50 is > 100 µM (inactive). In addition, under setting [1], the IC50 was found to be 64.2 µM.

For the compound `O=C(OCCn1cncn1)c1cc2ccccc2oc1=O`, the IC50 is > 100 µM (inactive). The IC50 under setting [1] is > 100 µM.

As to `CCOc1ccccc1NC(=O)c1ccccc1-c1nc(-c2ccccc2)no1`, the IC50 was > 100 µM (inactive). In addition, the IC50 under setting [1] is > 100 µM.

For the compound `CCC(Sc1nc2n[nH]c(C)c2c(=N)n1-c1ccc(C)c(Cl)c1)C(=O)N1CCOCC1` (configuration not stated), the IC50 is > 100 µM (inactive). The IC50 under setting [1] is > 100 µM.

On to `Cc1ccc(-c2nnc(COc3cccc(-n4cnnn4)c3)o2)cc1`, for which the IC50 was > 100 µM (inactive). In addition, under setting [1], the IC50 was > 100 µM.

Turning to `COc1ccc(CC(=O)Nc2ccc(N3CCN(c4ccc(OC)cc4)CC3)c(C#N)c2)cc1`, the IC50 is > 100 µM (inactive). In addition, the IC50 under setting [1] is > 100 µM.

For `CCCn1nnc(NC(=O)C(c2ccccc2)c2ccccc2)n1`, the IC50 was > 100 µM (inactive). Besides, the IC50 under setting [1] is > 100 µM.

Consider `CCC(C(=O)NCc1ccc(OC)cc1)n1nc(C)n2c(cc3occc32)c1=O` (configuration not stated), for which the IC50 was > 100 µM (inactive). Further, under setting [1], the IC50 was > 100 µM.

In the case of `Fc1ccc(Nc2nc(Oc3ccc4c(c3)OCO4)nc(N3CCOCC3)n2)c(F)c1`, the IC50 is > 100 µM (inactive). Also, the IC50 under setting [1] was > 100 µM.

For `Cc1cc(=O)oc2ccc(OCC(=O)N3CCc4ccccc43)cc12`, the IC50 is > 100 µM (inactive). Also, the IC50 under setting [1] was > 100 µM.

Consider `COc1ccccc1-c1nnc2sc(COc3ccc(Cl)cc3)nn12`, for which the IC50 is > 100 µM (inactive). Moreover, the IC50 under setting [1] is > 100 µM.

Take `CC(C)(C)SCCNC(=O)c1ccc(Cl)c(S(=O)(=O)N2CCOCC2)c1`: the IC50 was > 100 µM (inactive). For the same compound, the 50% inhibitory concentration (IC50) under setting [1] was > 100 µM.

As to `CC(=O)Nc1cc(C(F)(F)F)ccc1OCCOc1ccccc1`, the IC50 is > 100 µM (inactive). Under setting [1], the IC50 was > 100 µM.

Turning to `CCOC(=O)CSC1=Nc2ccccc2C2=NC(CC(=O)NCc3ccccc3)C(=O)N12` (configuration not stated), the IC50 is > 100 µM (inactive). In addition, the IC50 under setting [1] is > 100 µM.

As for `COc1ccccc1NC(=O)CSc1nc(O)cc(=O)n1C`, the IC50 was > 100 µM (inactive). The IC50 under setting [1] is > 100 µM.

As for `CCOc1cc(-c2nc(-c3ccc(C)nc3OCC)no2)cc(OCC)c1OCC`, the IC50 was > 100 µM (inactive). Further, the IC50 under setting [1] is > 100 µM.

For the compound `CC1(C)Cc2c(c(=S)nc(-c3ccccc3)n2CCOCCO)CO1`, the IC50 was > 100 µM (inactive). Further, the IC50 under setting [1] is > 100 µM.

As for `COc1ccc(OC)c(NC(=O)CNC(=O)Cn2cnc3ccccc3c2=O)c1`, the IC50 was > 100 µM (inactive). For the same compound, the IC50 under setting [1] is > 100 µM.

In the case of `CCOC(=O)c1c(N)nn(C(C)=O)c1-c1ccccc1`, the IC50 was > 100 µM (inactive). Further, the IC50 under setting [1] was > 100 µM.

Take `O=C(c1c[nH]c2ccc(S(=O)(=O)N3CCOCC3)cc2c1=O)N1CCCC1`: the IC50 is > 100 µM (inactive). Under setting [1], the IC50 is > 100 µM.

`c1ccc(-c2cc(-c3nn4c(-c5ccco5)nnc4s3)c3ccccc3n2)cc1`: the IC50 was > 100 µM (inactive). Further, the IC50 under setting [1] is > 100 µM.

In the case of `CCOC(=O)c1c(NC(=O)COC)sc2c1CCCC2`, the IC50 is > 100 µM (inactive). The IC50 under setting [1] is > 100 µM.

Regarding `Oc1ccccc1C1=Nc2ncnn2C(c2ccc(F)cc2)C1` (configuration not stated), the IC50 is > 100 µM (inactive). The IC50 under setting [1] is > 100 µM.

For the compound `c1ccc(CCc2nc(-c3ccncc3)no2)cc1`, the IC50 is > 100 µM (inactive). Moreover, the IC50 under setting [1] is > 100 µM.

For the compound `Cc1cc(C(=O)Nc2ccccc2)oc1C`, the IC50 entry was “inactive”. Under setting [2], the IC50 amounted to 84.2 µM. Further, the IC50 under setting [1] was > 100 µM.

On to `CNC(=O)CCn1nc(-c2ccccc2)c2ccccc2c1=O`, for which the IC50 was > 100 µM (inactive). Further, the IC50 under setting [1] is > 100 µM.

As for `COc1ccc(C2NC(=O)NC(C)=C2C(C)=O)cc1` (configuration not stated), the IC50 is > 100 µM (inactive). In addition, under setting [1], the IC50 was > 100 µM.

Take `N#CC1=C(SCC(=O)c2ccc(Cl)cc2)NC2=C(C(=O)CCC2)C1c1ccco1` (configuration not stated): the IC50 was > 100 µM (inactive). The IC50 under setting [1] is > 100 µM.

For `CCOC(=O)Cn1c(=O)c2c(nc3n2CCN3Cc2ccccc2)n(C)c1=O`, the IC50 is > 100 µM (inactive). For the same compound, under setting [1], the IC50 was > 100 µM.

In the case of `Cc1ccc(Cn2nnnc2CN2CCC(O)(c3ccc(F)cc3)CC2)cc1`, the IC50 is > 100 µM (inactive). The IC50 under setting [1] was > 100 µM.

With `CC(=O)c1cccc(-n2nnnc2SCC(=O)Nc2cccc(NC(=O)c3ccco3)c2)c1`, the IC50 was > 100 µM (inactive). Further, the 50% inhibitory concentration (IC50) under setting [1] was > 100 µM.

For the compound `O=C(Nc1ccc(Cl)cn1)c1ccccc1F`, the IC50 is > 100 µM (inactive). Further, the IC50 under setting [1] is > 100 µM.

`N#CC(C(=O)OC1CCCCC1)c1nc2ccccc2nc1N1CCOCC1` (configuration not stated): the IC50 was > 100 µM (inactive). For the same compound, the IC50 under setting [1] is > 100 µM.

As for `CC1(C)CC(=O)c2cc(OCC(=O)NCCCN3CCN(c4ccccc4F)CC3)ccc2O1`, the IC50 is > 100 µM (inactive). Further, under setting [1], the IC50 is > 100 µM.

Take `CCCCOc1ccc(OCCCC)c2c1NC1(N2)C(=O)N(C(C)=O)c2ccccc21`: the IC50 is > 100 µM (inactive). The IC50 under setting [1] was > 100 µM.

With `C=CCn1c(N)cc(=O)nc1SCC(=O)Nc1ccccc1`, the IC50 was > 100 µM (inactive). Further, the IC50 under setting [1] is > 100 µM.

Turning to `c1ccc(SCc2nc(-c3ccccn3)no2)cc1`, the IC50 is > 100 µM (inactive). The IC50 under setting [1] is > 100 µM.

On to `O=C(c1ccc2c(c1)OCO2)N(c1ccc(F)cc1)C1C=CS(=O)(=O)C1` (configuration not stated), for which the IC50 is > 100 µM (inactive). In addition, under setting [1], the IC50 was > 100 µM.

With `CCOC(=O)c1cc(S(=O)(=O)N2CCN(C(=O)OCC)CC2)cn1C`, the IC50 is > 100 µM (inactive). Under setting [1], the IC50 was > 100 µM.

Regarding `COc1cccc(C2NC(CC(C)C)(C(=O)O)C3C(=O)N(Cc4ccccc4)C(=O)C23)c1O` (configuration not stated), the IC50 was > 100 µM (inactive). Moreover, under setting [1], the IC50 is > 100 µM.
